Values after ≈ are worked out from the molar mass of the structure shown.
Columns and labels:
[1] = AUC (0 to infinity) in Sprague-Dawley rat at 10 mg/kg, po by LC-MS/MS analysis; format: ADME, organism-based; design: dose 10 mg/kg, time infinity, route oral; details: in vivo
[2] = Thermodynamic equilibrium solubility in water by HPLC-based shake flask method; format: physicochemical; details: read-out: Therm_solubility
MDA-MB-231 [3] = test: Induction of apoptosis in human MDA-MB-231 cells assessed as early apoptotic cells at 4 uM measured after 48 hrs by Annexin V-FITC/propidium iodide staining based flow cytometry (0.877%); format: functional
[4] = Half life in Sprague-Dawley rat at 2 mg/kg, iv by LC-MS/MS analysis; format: ADME, organism-based; details: in vivo
MDA-MB-231 [5] = test: Cell cycle arrest in human MDA-MB-231 cells assessed as accumulation at G0/G1 phase at 12 uM measured after 48 hrs by propidium iodide staining based flow cytometry (reference value: 57.65%); format: functional
[6] = Half life in mouse hepatocytes by LC-MS/MS analysis; format: ADME, cell-based, Hepatocyte
MDA-MB-231 [7] = test: Cell cycle arrest in human MDA-MB-231 cells assessed as accumulation at G2/M phase at 8 uM measured after 48 hrs by propidium iodide staining based flow cytometry (reference value: 15.9%); format: functional
[8] = Toxicity in ICR mouse assessed as toxic reaction at 500 mg/kg, po administered as single dose measured for 7 days; format: organism-based; details: in vivo, 168 h
[9] = Half life in human hepatocytes by LC-MS/MS analysis; format: ADME, cell-based, Hepatocyte
MDA-MB-231 [10] = test: Induction of apoptosis in human MDA-MB-231 cells assessed as late apoptotic cells at 12 uM measured after 48 hrs by Annexin V-FITC/propidium iodide staining based flow cytometry (2.78%); format: functional
CDK2/Cyclin A2 = CDK2/Cyclin A2 (Homo sapiens, UniProt P24941); design: species or system Sf9
MDA-MB-231 [11] = test: Induction of apoptosis in human MDA-MB-231 cells assessed as late apoptotic cells at 4 uM measured after 48 hrs by Annexin V-FITC/propidium iodide staining based flow cytometry (2.78%); format: functional
[12] = Oral bioavailability in Sprague-Dawley rat at 10 mg/kg by LC-MS/MS analysis; format: ADME, organism-based; details: in vivo
[13] = Toxicity in human MDA-MB-231 cells xenografted BALB/c nu/nu mouse assessed as body weight loss at 22.5 to 90 mg/kg, po administered once daily for 3 weeks and measured at 3 days interval during compound dosing; format: organism-based; details: in vivo
MDA-MB-231 [14] = test: Induction of apoptosis in human MDA-MB-231 cells assessed as necrotic cells at 12 uM measured after 48 hrs by Annexin V-FITC/propidium iodide staining based flow cytometry (0.498%); format: functional
CDK9/Cyclin K = CDK9/Cyclin K (Homo sapiens, UniProt P50750); test: biochemical
MDA-MB-231 [15] = test: Induction of apoptosis in human MDA-MB-231 cells assessed as late apoptotic cells at 8 uM measured after 48 hrs by Annexin V-FITC/propidium iodide staining based flow cytometry (2.78%); format: functional
CDK9/cyclin T1 = CDK9/cyclin T1 (Homo sapiens, UniProt P50750); test: Binding affinity to recombinant full-length GFP-fused CDK9/His-tagged cyclin T1 (unknown origin) expressed in HEK293T cells measured after 30 mins by microscale thermophoresis method; design: species or system HEK-293T
MDA-MB-231 [16] = test: Cell cycle arrest in human MDA-MB-231 cells assessed as accumulation at G0/G1 phase at 8 uM measured after 48 hrs by propidium iodide staining based flow cytometry (reference value: 57.65%); format: functional
[17] = Cmax in Sprague-Dawley rat at 2 mg/kg, iv by LC-MS/MS analysis; format: ADME, organism-based; design: dose 2 mg/kg, route intravenous; details: in vivo
[18] = Thermodynamic equilibrium solubility in normal saline by HPLC-based shake flask method; format: physicochemical; details: read-out: Therm_solubility
MCF7 = test: Antiproliferative activity against human MCF7 cells assessed as inhibition of cell proliferation measured after 48 hrs by CCK8 assay; format: functional, cell-based; details: MCF7, 48 h
MDA-MB-231 [19] = test: Antiproliferative activity against human MDA-MB-231 cells assessed as inhibition of cell proliferation measured after 48 hrs by CCK8 assay; format: functional, cell-based; details: MDA-MB-231, 48 h
[20] = Toxicity in ICR mouse assessed as weight loss at 500 mg/kg, po administered as single dose measured for 7 days; format: organism-based; details: in vivo, 168 h
[21] = Clearance in Sprague-Dawley rat at 2 mg/kg, iv by LC-MS/MS analysis; format: ADME, organism-based; details: in vivo
[22] = Half life in Sprague-Dawley rat at 10 mg/kg, po by LC-MS/MS analysis; format: ADME, organism-based; details: in vivo
MDA-MB-231 [23] = test: Cell cycle arrest in human MDA-MB-231 cells assessed as accumulation at G2/M phase at 4 uM measured after 48 hrs by propidium iodide staining based flow cytometry (reference value: 15.9%); format: functional
MDA-MB-231 [24] = test: Induction of apoptosis in human MDA-MB-231 cells assessed as early apoptotic cells at 8 uM measured after 48 hrs by Annexin V-FITC/propidium iodide staining based flow cytometry (0.877%); format: functional
[25] = Tmax in Sprague-Dawley rat at 10 mg/kg, po by LC-MS/MS analysis; format: ADME, organism-based; details: in vivo
MDA-MB-231 [26] = test: Cell cycle arrest in human MDA-MB-231 cells assessed as accumulation at G0/G1 phase at 4 uM measured after 48 hrs by propidium iodide staining based flow cytometry (reference value: 57.65%); format: functional
[27] = Cmax in Sprague-Dawley rat at 10 mg/kg, po by LC-MS/MS analysis; format: ADME, organism-based; design: dose 10 mg/kg, route oral; details: in vivo
MDA-MB-231 [28] = test: Induction of apoptosis in human MDA-MB-231 cells assessed as necrotic cells at 4 uM measured after 48 hrs by Annexin V-FITC/propidium iodide staining based flow cytometry (0.498%); format: functional
MDA-MB-231 [29] = test: Cell cycle arrest in human MDA-MB-231 cells assessed as accumulation at S phase at 12 uM measured after 48 hrs by propidium iodide staining based flow cytometry (reference value: 26.45%); format: functional
Jurkat = test: Antiproliferative activity against human Jurkat cells assessed as inhibition of cell proliferation measured after 48 hrs by CCK8 assay; format: functional, cell-based
CDK6/cyclin D3 = CDK6/cyclin D3 (Homo sapiens, UniProt Q00534); test: Binding affinity to recombinant full-length GFP-fused CDK6/His-tagged cyclin D3 (unknown origin) expressed in HEK293T cells measured after 30 mins by microscale thermophoresis method; design: species or system HEK-293T
MDA-MB-231 [30] = test: Induction of apoptosis in human MDA-MB-231 cells assessed as viable cells at 4 uM measured after 48 hrs by Annexin V-FITC/propidium iodide staining based flow cytometry (95.8%); format: functional; details: MDA-MB-231, 48 h, read-out: Activity
MDA-MB-231 [31] = test: Cell cycle arrest in human MDA-MB-231 cells assessed as accumulation at S phase at 8 uM measured after 48 hrs by propidium iodide staining based flow cytometry (reference value: 26.45%); format: functional
MDA-MB-231 [32] = test: Cell cycle arrest in human MDA-MB-231 cells assessed as accumulation at S phase at 4 uM measured after 48 hrs by propidium iodide staining based flow cytometry (reference value: 26.45%); format: functional
[33] = Stability in mouse hepatocytes assessed as parent compound remaining after 120 mins by LC-MS/MS analysis; format: ADME, cell-based, Hepatocyte; details: read-out: Stability
MDA-MB-231 [34] = test: Induction of apoptosis in human MDA-MB-231 cells assessed as necrotic cells at 8 uM measured after 48 hrs by Annexin V-FITC/propidium iodide staining based flow cytometry (0.498%); format: functional

Sequence of CDK9/Cyclin K (P50750 whole entry): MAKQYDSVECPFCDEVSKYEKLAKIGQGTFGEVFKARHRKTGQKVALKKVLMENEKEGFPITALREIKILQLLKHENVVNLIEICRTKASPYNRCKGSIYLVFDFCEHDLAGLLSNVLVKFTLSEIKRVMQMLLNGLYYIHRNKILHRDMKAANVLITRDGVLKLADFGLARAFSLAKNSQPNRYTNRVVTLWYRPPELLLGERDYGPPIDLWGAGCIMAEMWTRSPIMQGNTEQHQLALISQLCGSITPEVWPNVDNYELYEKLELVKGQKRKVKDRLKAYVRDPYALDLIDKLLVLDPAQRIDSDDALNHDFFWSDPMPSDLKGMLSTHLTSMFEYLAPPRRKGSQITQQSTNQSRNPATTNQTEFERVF
Sequence of CDK9/Cyclin K (O75909 whole entry, further chain): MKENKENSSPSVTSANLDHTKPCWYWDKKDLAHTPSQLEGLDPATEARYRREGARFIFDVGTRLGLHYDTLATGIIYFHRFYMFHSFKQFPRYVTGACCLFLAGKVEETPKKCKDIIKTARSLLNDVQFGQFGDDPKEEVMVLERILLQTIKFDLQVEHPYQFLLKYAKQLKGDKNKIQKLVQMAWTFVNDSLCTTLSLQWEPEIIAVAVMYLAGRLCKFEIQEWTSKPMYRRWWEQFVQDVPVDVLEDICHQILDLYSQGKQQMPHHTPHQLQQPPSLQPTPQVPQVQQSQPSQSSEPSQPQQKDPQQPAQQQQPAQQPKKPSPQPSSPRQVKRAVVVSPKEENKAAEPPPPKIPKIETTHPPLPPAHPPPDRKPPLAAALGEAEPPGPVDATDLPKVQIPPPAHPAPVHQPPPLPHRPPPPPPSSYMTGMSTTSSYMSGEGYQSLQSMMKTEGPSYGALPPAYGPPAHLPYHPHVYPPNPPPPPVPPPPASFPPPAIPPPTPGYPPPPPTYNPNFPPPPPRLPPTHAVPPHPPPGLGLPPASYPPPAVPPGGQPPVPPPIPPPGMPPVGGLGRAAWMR
Sequence of CDK9/cyclin T1 (O60563 whole entry, the tested form may be a part): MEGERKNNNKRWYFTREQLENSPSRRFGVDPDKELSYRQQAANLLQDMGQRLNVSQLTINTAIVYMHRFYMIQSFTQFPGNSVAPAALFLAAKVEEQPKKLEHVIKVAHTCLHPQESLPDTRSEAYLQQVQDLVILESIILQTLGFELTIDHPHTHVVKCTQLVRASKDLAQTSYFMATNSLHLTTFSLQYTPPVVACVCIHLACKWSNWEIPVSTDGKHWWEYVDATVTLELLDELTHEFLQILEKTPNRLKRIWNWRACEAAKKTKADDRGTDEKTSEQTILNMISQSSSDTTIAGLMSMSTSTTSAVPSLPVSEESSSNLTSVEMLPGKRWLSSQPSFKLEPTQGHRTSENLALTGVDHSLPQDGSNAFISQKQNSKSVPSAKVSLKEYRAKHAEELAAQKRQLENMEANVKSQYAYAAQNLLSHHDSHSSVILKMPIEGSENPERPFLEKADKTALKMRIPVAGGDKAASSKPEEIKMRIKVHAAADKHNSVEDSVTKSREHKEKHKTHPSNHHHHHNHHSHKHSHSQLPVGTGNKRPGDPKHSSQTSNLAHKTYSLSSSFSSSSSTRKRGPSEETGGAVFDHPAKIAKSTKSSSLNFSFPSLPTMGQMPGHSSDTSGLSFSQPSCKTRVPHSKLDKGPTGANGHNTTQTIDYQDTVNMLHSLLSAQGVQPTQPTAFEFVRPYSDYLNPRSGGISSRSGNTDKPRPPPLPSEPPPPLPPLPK
Sequence of CDK9/cyclin T1 (P50750 whole entry, the tested form may be a part): as the sequence (P50750 whole entry) above
Sequence of CDK6/cyclin D3 (P30281 whole entry, the tested form may be a part): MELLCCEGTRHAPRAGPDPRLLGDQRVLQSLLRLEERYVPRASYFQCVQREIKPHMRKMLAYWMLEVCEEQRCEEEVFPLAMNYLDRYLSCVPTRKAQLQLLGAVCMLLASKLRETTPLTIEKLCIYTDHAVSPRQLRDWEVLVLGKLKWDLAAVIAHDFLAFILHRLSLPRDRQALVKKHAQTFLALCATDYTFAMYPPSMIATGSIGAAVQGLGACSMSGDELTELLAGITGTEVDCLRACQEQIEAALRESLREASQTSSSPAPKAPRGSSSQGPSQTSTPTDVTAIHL
Sequence of CDK6/cyclin D3 (Q00534 whole entry, the tested form may be a part): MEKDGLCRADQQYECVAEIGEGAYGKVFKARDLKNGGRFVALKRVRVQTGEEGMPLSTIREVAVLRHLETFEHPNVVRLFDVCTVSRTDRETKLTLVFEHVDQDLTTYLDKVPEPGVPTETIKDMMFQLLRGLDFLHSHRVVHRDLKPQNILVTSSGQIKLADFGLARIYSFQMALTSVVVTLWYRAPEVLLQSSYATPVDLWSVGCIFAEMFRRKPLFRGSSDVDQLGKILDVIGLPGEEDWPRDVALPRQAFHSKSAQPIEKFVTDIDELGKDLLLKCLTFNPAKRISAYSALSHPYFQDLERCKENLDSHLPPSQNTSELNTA

## CC(=O)Nc1cccc(Nc2nc(Nc3ccc(N4CCN(C)CC4)cn3)ncc2Cl)c1
[1]
  AUC(0-inf): 926 ng·h/mL
[2]
  solubility thermodynamic: 340 µg/mL (≈ 751 µM)
MDA-MB-231 [3]
  Activity: 2.08%
[4]
  half-life: 1.76 h
MDA-MB-231 [5]
  Activity: 50.5%
[6]
  half-life: 0.653 h
MDA-MB-231 [7]
  Activity: 8.13%
[8]
  Activity: Non-Toxic
[9]
  half-life: 1.53 h
MDA-MB-231 [10]
  Activity: 26.4%
CDK2/Cyclin A2
  IC50: > 10 µM
MDA-MB-231 [11]
  Activity: 3.15%
[12]
  bioavailability: 28.9%
[13]
  Activity: Non-Toxic
MDA-MB-231 [14]
  Activity: 2.24%
CDK9/Cyclin K
  IC50: 0.0395 µM
MDA-MB-231 [15]
  Activity: 6.72%
CDK9/cyclin T1
  Kd: 0.03 µM
MDA-MB-231 [16]
  Activity: 77.51%
[17]
  Cmax: 995 ng/mL
[18]
  solubility thermodynamic: 214 µg/mL (≈ 472 µM)
MCF7
  IC50: 4.01 to 8.08 µM
MDA-MB-231 [19]
  IC50: 4.01 to 8.08 µM
[20]
  Activity: Non-Toxic
[21]
  clearance: 52.2 mL/min/kg
[22]
  half-life: 3.24 h
MDA-MB-231 [23]
  Activity: 9.18%
MDA-MB-231 [24]
  Activity: 5.06%
[25]
  Tmax: 4 h
MDA-MB-231 [26]
  Activity: 71.85%
[27]
  Cmax: 101 ng/mL
MDA-MB-231 [28]
  Activity: 0.57%
MDA-MB-231 [29]
  Activity: 15.23%
Jurkat
  IC50: 4.01 to 8.08 µM
CDK6/cyclin D3
  Kd: 0.071 µM
MDA-MB-231 [30]
  viability at 4 µM: 94.2%
MDA-MB-231 [31]
  Activity: 14.36%
MDA-MB-231 [32]
  Activity: 18.97%
[33]
  remaining at 2 h: 12%
MDA-MB-231 [34]
  Activity: 0.766%
